The test system of assay [1] is NF-1+/+ SV40 MEFs. Kind of assay: colchicine-induced death, cell viability by MTT assay. Type of assay: cell-based, mouse. As to conditions: NF-1+/+ cells; 75 μM FTS or vehicle 24 h, then colchicine 4.5 h. The method, then: (§1) Human NF-1 ST88-14 MPNST, non-NF-1 STS26T MPNST, and the different primary and SV40-immortalized NF-1 genotypes (NF-1^−/−, NF-1^+/−, and NF-1^+/+) of mouse embryonic fibroblasts (MEFs) were grown in high-glucose Dulbecco's modified Eagle's medium (DMEM) supplemented with 10% heat-inactivated fetal calf serum (both from Biological Industries, Beit Ha Emek, Israel) with 0.0004% β-mercaptoethanol added to the MEF growth medium only.
(§2) The three primary NF-1 MEF genotypes were immortalized by transfection with SV40 whole genome DNA (a gift from Dr. Atan Gross, The Weizmann Institute of Science) using the lipofectamine transfection reagent (InvitroGen Life Technologies, Paisley, UK). One day before transfection, primary MEFs were seeded at a density of 2×10^5 cells per well in 6-well plates. To each dish we added 1 ml of DNA-lipofectamine mixture, 0.1 μg SV40 whole genome DNA, and 10 μg of lipofectamine in 1 ml of OptiMEM (InvitroGen), according to the manufacturer's instructions. The cells were split 24 h after transfection and seeded in 10-cm^2 dishes at a density of 1×10^3 to 1×10^4 cells per dish. Immortalized clones from each NF-1 genotype were collected 14 days after transfection.
(§3) Cell viability was determined by the MTT assay.

Assay [2] deals with NF-1−/− and NF-1+/− SV40 MEFs. Described as above. Type of assay: cell-based, mouse. As to conditions: NF-1−/− and NF-1+/− cells; 75 μM FTS or vehicle 24 h, then colchicine 4.5 h. The method, then:
as §1, §2, §3

In the case of `COc1cc2c(c(OC)c1OC)-c1ccc(OC)c(=O)cc1[C@@H](NC(C)=O)CC2` [colchicine, Acetamide, N-((7S)-5,6,7,9-tetrahydro-1,2,3,10-tetramethoxy-9-oxobenzo(a)heptalen-7-yl)-], the “cell survival / colchicine-induced cell death” value is “induced death” in assay [1] and “only a small effect on cell survival” in assay [2].

For the origin of these results see patent US20110046223A1, “TREATMENT OF NEUROFIBROMATOSIS” (RAMOT AT TEL-AVIV UNIVERSITY LTD., priority 2006, published 2011).
